From ChEMBL document CHEMBL1201862, “PubChem BioAssay data set” (2004)
Active and inactive are the calls of the source.

How the values were obtained:
[1] = molecular target: Voltage-gated inwardly rectifying potassium channel KCNH2 (Homo sapiens, UniProt Q12809); conditions: Potency;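 further: confirmatory quantitative high-throughput screen measuring inhibition of hERG channel activity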
[2] = molecular target: T1, C-C chemokine receptor type 6 (Homo sapiens, UniProt P51684); test: antagonism of CCR6 beta-arrestin recruitment – cell-based, luminescent beta-arrestin readout, dose response (AID 504728); type: functional
T1 sequence (P51684 whole entry): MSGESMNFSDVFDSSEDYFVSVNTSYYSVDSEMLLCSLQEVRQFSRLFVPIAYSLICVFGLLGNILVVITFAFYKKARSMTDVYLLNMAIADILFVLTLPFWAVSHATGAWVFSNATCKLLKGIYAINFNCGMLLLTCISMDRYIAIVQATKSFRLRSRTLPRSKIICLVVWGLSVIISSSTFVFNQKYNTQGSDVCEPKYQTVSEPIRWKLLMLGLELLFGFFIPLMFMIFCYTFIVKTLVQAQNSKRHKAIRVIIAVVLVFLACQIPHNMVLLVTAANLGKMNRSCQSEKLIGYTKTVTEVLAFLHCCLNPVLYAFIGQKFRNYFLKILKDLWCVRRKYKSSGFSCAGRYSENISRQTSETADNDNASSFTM

Beta-galactosidase = Beta-galactosidase (Escherichia coli, UniProt Q8VNN2); test: detection-enzyme interference by beta-gal modulators – biochemical, E. coli enzyme, set 3, artefact control for CCR6 antagonist project, dose response (AID 504712); type: functional
[3] = molecular target: T2, Heat shock factor protein 1 (Mus musculus, UniProt P38532); test: enhancement of HSF1-driven luciferase signal – cell-based, NIH3T3, luminescence, dose retest, confirmation (AID 435004); type: functional;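 further: stress induced by proteasome inhibitor MG132 added 30 min after compound; luciferase reporter driven by HSF1 response element in NIH3T3 cells; actives raise luminescence as potentiators of the MG132 stress response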
T2 sequence (P38532 whole entry): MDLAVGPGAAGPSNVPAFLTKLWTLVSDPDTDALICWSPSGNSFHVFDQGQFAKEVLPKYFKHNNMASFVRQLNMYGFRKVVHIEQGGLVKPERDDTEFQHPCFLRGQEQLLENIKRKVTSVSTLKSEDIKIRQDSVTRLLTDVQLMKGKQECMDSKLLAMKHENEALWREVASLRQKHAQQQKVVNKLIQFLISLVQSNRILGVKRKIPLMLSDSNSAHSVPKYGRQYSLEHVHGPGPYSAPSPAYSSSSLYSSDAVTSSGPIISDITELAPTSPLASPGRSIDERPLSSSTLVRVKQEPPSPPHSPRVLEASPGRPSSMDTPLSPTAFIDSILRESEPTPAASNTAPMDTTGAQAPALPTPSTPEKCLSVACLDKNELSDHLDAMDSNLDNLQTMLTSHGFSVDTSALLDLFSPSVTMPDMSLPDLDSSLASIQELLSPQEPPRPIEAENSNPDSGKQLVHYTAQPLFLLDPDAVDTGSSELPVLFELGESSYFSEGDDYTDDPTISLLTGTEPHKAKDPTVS

Apelin receptor = Apelin receptor (Homo sapiens, UniProt P35414); test: apelin receptor antagonists, arrestin read-out – cell-based, luminescent, enzyme-fragment complementation, selectivity assay for CCR6 antagonist project, SAR follow-up (AID 588359); type: functional
[4] = molecular target: C-X-C chemokine receptor type 5 (Homo sapiens, UniProt P32302); test: inhibition of CXCL13-driven CXCR5 beta-arrestin recruitment – cell-based, luminescence, CHO-K1 PathHunter, selectivity assay for CCR6 antagonist project, SAR follow-up (AID 540340); type: functional
[5] = molecular target: T1, C-C chemokine receptor type 6; test: analog antagonism of CCR6 beta-arrestin signaling – cell-based, luminescent beta-arrestin readout, SAR follow-up (AID 540334); type: functional
[6] = NIH-3T3 fibroblast cytotoxicity, dose response, cytotoxicity control, cell-based, fluorescence, Alamar Blue, secondary assay (AID 2327); type: functional;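 further: NIH-3T3 mouse fibroblasts cultured with fluconazole at 8 µg/mL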
[7] = molecular target: T3, Luciferin 4-monooxygenase (Photinus pyralis, UniProt P08659); test: Counter Screen for Luciferase-based Assay Positives. [Related pubchem assays: 620, 618, 411 ]
[8] = alpha-synuclein stem-loop luciferase translation blockers – H4 neuroglioma cells, luminescence, confirmation (AID 1988); type: functional, cell-based
[9] = fluconazole-exposed Candida albicans growth modulators – fluorescence, retest, confirmation (AID 2467); type: functional, cell-based
HT-1080 = test: HT1080 cell viability loss – fluorescence readout (AID 620); type: functional, cell-based; conditions: Homo sapiens
[10] = THP-1 cell cytotoxicity, dose response, cytotoxicity control for non-replicating M. tuberculosis project (AID 489025); type: functional
[11] = HepG2 cell cytotoxicity, dose response, cytotoxicity control for non-replicating M. tuberculosis project (AID 489018); type: functional; conditions: Mycobacterium tuberculosis
[12] = Vero E6 cell cytotoxicity, dose response, cytotoxicity control for non-replicating M. tuberculosis project, secondary assay (AID 492998); type: functional, VeroE6; conditions: Vero C1008
cells [13] = type: functional
[14] = molecular target: Dual specificity protein kinase CLK1 (Homo sapiens, UniProt P49759); test: inhibition of human CLK1 activity – biochemical, cherry-picked samples, selectivity assay for Dyrk1A inhibitor project, dose response (AID 588811)
[15] = molecular target: Dual specificity tyrosine-phosphorylation-regulated kinase 1A (Rattus norvegicus, UniProt Q63470); type: biochemical, Homo sapiens
[16] = molecular target: T4, Oxysterols receptor LXR-beta (Homo sapiens, UniProt P55055); type: functional, cell-based;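 further: Cell-based luminescence dose-response assay of agonist activity at LXR, run as a confirmatory counterscreen to a daf-12 agonist screen; HEK293 cells with Gal4-LXR fusion and GAL4-driven luciferase reporter; agonist potency from rising luciferase signal of a Gal4-LXR reporter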
T4 sequence (P55055 whole entry): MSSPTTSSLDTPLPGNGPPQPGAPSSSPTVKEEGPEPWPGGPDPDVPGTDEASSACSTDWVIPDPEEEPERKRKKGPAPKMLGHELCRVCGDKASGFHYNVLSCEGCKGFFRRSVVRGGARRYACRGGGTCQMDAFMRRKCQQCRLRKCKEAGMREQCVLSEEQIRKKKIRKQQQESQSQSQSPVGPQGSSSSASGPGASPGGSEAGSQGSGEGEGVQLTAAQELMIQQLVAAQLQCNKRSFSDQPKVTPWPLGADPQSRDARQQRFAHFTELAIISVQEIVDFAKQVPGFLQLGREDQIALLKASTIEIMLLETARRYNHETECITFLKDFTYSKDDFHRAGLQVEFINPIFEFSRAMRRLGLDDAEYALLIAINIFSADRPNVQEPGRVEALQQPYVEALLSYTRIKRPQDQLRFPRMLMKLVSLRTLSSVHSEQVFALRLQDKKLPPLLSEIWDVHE

cells [17] = test: cells
[18] = molecular target: Glycogen synthase kinase-3 alpha (Homo sapiens, UniProt P49840); test: Inhibition of Human GSK-3 alpha Activity Measured in Biochemical System Using Microfluidics - 2063-06_Inhibitor_Dose_DryPowder_Activity. [Related pubchem assays (depositor defined):AID2709]
[19] = molecular target: Glycogen synthase kinase-3 beta (Homo sapiens, UniProt P49841); test: Inhibition of Human GSK-3 beta Activity Measured in Biochemical System Using Microfluidics - 2063-05_Inhibitor_Dose_DryPowder_Activity. [Related pubchem assays (depositor defined):AID2709]
[20] = molecular target: T5, E3 ubiquitin-protein ligase XIAP (Homo sapiens, UniProt P98170); test: Counter Screen using XIAP-Bir3 for Chemical Antagonists of Bir1/2 domains of IAP-family anti-apoptotic proteins. [Related pubchem assays (depositor defined):AID1018, AID1449, AID1514, AID1638, AID1749, AID1750, AID488957, AID488963]
[21] = molecular target: T5, E3 ubiquitin-protein ligase XIAP; test: small molecules displacing peptide from XIAP – biochemical, IAP family, fluorescence polarization (AID 1018); type: functional
Troponin, cardiac muscle = Troponin, cardiac muscle (Homo sapiens, UniProt P19429+P45379+P63316); test: Fluorescence-based biochemical high throughput dose response assay for activators of the calcium sensitivity of cardiac Regulated Thin Filaments (RTF). [Related pubchem assays (depositor defined):AID493008, AID493018, AID504382, AID504383]; type: protein-complex assay
CHO = CHO cell viability loss, potency – luminescence, cytotoxicity control for TLR9-MyD88 binding inhibitor project, dose response (AID 588339); type: functional, cell-based, hamster; conditions: Cricetulus griseus;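 further: CHO cells stably coexpressing TLR9 and MyD88 fusions from primary screen; compound exposure lasted 48 hours before viability readout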
[22] = suppression of NO production in INS-1E cells – cell-based, Griess absorbance, dry powder, set 3, dose response (AID 488870); type: functional; conditions: Rattus norvegicus
INS1 = test: suppression of NO production in INS-1E cells – cell-based, Griess absorbance, dry powder, set 2, dose response (AID 488868); type: functional; conditions: Rattus norvegicus
Candida albicans = test: Candida growth inhibition combined with fluconazole – CaCi-2 strain, Alamar Blue, dry powder, set 3, dose response (AID 488907); type: functional, organism-based
Streptokinase A = molecular target: T6, Streptokinase A (Streptococcus pyogenes serotype M1, UniProt P10520); test: viability-normalized secreted streptokinase activity reduction – plasminogen activation absorbance, OD405, dose response (AID 1914); type: functional, Streptococcus pyogenes M1 GAS;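 further: secreted streptokinase activity via plasminogen activation per viability signal from cell pellet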
T6 sequence (P10520 whole entry): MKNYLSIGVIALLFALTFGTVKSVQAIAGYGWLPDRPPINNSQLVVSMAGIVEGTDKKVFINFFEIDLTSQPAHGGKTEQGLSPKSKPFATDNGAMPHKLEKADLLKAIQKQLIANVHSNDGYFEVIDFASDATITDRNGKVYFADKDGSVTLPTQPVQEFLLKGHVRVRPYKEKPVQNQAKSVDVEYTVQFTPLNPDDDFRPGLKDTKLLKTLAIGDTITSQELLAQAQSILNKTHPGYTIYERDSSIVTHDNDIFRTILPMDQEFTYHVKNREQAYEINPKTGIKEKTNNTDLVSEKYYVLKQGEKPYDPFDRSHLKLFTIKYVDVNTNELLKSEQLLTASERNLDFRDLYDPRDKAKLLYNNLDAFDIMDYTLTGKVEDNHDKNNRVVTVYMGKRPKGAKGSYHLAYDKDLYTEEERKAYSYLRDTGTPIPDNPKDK

[23] = molecular target: T3, Luciferin 4-monooxygenase; test: inhibition of purified Photinus pyralis luciferase – biochemical, luminescence, dose response (AID 1891)
[24] = Luminescence Cell-Based Dose Confirmation HTS to Identify Inhibitors of Platelet Dense Granule Release. [Related pubchem assays: 1663 (Primary HTS), 1678 (Summary of Project)]; type: functional
Streptococcus = test: GAS UMAA2166 growth inhibition – luminescence, BacTiterGlo, counter-screen for streptokinase expression inhibitor project, dose response (AID 1915); type: functional, organism-based;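 further: potency for reduction of bacterial viability or growth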
[25] = molecular target: Heat shock protein HSP 90-alpha (Homo sapiens, UniProt P07900); type: functional, organism-based
HSP90 = HSP90 (Plasmodium falciparum 3D7, UniProt Q8IL32); type: functional, organism-based
[26] = molecular target: T7, Endoribonuclease toxin MazF (Escherichia coli K-12, UniProt P0AE70); test: activation of MazEF endoribonuclease cleavage – biochemical, fluorescence, single-stranded RNA substrate, uHTS hits, dose response (AID 588481); type: functional
[27] = molecular target: T7, Endoribonuclease toxin MazF; test: substrate-only fluorescence increase artefacts – biochemical, single-stranded RNase substrate, counter-screen for MazEF activator project, dose response (AID 588502); type: functional

T7 sequence (P0AE70 whole entry): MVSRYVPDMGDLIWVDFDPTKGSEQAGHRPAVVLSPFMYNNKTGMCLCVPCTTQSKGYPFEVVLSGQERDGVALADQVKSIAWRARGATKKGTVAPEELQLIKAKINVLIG
T3 sequence (P08659 whole entry): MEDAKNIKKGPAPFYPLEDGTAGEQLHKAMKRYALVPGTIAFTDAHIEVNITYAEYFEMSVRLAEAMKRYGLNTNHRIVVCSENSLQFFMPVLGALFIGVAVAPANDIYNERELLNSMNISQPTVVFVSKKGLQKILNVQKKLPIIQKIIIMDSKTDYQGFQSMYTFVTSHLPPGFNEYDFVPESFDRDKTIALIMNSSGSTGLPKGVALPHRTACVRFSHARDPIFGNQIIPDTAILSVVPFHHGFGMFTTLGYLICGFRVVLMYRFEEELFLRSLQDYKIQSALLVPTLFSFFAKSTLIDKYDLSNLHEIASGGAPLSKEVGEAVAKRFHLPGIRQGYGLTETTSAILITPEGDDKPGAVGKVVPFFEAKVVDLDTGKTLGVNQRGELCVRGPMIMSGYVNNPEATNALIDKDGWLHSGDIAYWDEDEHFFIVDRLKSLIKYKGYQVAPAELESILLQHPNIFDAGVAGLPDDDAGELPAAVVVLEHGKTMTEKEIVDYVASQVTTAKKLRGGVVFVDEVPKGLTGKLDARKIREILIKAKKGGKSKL
T5 sequence (P98170 whole entry): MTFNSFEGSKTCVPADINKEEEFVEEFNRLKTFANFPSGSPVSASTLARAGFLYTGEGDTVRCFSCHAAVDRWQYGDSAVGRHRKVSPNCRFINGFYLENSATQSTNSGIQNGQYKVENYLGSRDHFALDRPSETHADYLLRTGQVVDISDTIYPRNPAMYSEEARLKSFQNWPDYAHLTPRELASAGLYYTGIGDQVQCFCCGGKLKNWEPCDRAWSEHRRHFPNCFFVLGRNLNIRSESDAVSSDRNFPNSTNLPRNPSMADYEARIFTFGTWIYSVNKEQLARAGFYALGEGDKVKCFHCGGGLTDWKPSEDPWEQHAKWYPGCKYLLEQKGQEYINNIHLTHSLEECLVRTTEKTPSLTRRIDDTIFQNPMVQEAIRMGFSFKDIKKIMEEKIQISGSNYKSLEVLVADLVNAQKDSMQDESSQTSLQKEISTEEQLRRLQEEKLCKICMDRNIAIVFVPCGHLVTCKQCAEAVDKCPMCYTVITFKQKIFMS
Chain of Glycogen synthase kinase-3 beta (P49841 whole entry): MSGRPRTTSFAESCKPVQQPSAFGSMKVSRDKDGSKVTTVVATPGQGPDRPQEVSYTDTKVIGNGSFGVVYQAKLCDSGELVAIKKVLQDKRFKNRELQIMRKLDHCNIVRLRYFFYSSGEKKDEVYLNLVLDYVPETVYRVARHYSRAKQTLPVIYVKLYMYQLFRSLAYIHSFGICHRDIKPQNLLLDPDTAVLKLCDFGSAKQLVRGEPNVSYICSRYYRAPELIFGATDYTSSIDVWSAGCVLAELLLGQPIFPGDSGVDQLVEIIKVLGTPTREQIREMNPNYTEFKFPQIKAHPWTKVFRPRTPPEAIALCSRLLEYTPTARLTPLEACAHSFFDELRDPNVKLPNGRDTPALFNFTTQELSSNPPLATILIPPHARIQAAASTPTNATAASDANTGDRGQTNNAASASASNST
Chain of Glycogen synthase kinase-3 alpha (P49840 whole entry): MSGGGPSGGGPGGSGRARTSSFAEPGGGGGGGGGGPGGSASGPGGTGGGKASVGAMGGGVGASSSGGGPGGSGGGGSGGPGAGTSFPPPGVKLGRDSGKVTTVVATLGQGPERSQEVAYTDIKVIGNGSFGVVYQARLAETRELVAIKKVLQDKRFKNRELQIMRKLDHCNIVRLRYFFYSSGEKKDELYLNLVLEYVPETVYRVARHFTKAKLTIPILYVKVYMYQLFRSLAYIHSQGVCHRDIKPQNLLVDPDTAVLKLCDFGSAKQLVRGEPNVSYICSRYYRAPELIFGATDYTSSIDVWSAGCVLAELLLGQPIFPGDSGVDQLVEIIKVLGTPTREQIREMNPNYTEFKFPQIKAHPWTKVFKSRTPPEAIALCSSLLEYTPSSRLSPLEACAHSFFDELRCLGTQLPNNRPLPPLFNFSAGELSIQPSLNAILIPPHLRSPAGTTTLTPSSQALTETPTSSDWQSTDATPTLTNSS
Chain of HSP90 (Q8IL32 whole entry): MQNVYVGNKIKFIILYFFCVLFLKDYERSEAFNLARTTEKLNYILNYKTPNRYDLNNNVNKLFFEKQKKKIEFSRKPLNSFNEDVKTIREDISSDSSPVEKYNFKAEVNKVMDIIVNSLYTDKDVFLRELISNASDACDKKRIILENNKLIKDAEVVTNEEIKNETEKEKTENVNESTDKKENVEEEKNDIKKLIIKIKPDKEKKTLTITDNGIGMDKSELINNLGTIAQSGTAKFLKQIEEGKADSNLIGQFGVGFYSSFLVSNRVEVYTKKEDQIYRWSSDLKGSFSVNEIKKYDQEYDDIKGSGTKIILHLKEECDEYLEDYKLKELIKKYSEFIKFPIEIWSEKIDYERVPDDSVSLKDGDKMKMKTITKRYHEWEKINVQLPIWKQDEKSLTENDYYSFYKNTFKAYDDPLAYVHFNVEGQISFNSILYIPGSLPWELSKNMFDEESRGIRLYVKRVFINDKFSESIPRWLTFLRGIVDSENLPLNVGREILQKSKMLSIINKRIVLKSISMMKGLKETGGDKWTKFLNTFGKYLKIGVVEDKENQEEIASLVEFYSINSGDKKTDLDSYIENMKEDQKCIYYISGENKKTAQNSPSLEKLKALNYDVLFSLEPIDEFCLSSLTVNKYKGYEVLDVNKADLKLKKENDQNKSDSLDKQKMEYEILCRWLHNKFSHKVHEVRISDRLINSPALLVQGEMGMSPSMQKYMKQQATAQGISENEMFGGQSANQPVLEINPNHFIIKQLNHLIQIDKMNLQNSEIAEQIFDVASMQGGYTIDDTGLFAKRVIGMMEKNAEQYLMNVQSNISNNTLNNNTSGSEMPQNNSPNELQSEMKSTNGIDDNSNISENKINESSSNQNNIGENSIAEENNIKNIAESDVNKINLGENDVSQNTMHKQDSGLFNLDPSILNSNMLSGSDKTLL
Chain of Voltage-gated inwardly rectifying potassium channel KCNH2 (Q12809 whole entry): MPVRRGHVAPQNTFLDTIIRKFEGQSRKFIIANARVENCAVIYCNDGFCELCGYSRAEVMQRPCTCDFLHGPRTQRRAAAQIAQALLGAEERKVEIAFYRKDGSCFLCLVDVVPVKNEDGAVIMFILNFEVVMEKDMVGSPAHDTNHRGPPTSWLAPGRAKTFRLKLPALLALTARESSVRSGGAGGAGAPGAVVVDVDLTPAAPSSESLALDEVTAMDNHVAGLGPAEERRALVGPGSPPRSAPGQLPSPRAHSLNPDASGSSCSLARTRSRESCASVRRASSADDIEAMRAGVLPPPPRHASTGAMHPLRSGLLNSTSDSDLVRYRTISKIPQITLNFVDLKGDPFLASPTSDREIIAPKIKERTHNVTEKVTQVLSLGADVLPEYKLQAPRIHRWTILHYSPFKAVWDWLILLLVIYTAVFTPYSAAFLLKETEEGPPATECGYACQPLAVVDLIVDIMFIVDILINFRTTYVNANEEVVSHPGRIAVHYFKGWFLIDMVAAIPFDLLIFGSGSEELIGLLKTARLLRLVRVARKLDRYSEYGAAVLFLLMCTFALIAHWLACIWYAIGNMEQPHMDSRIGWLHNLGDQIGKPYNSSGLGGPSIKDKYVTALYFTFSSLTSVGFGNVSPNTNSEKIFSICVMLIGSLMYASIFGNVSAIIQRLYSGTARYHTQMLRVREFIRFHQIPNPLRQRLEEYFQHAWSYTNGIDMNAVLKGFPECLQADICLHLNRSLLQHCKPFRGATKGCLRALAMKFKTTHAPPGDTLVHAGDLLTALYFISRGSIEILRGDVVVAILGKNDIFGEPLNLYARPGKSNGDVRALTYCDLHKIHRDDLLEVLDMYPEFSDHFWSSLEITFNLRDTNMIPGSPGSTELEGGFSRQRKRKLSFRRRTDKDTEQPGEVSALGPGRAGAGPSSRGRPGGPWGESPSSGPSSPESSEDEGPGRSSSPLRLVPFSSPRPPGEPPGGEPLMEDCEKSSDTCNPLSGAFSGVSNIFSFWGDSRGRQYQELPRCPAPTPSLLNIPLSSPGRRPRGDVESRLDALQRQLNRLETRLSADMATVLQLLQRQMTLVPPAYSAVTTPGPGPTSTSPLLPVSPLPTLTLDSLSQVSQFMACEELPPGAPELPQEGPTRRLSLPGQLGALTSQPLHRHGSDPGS
Chain of C-X-C chemokine receptor type 5 (P32302 whole entry): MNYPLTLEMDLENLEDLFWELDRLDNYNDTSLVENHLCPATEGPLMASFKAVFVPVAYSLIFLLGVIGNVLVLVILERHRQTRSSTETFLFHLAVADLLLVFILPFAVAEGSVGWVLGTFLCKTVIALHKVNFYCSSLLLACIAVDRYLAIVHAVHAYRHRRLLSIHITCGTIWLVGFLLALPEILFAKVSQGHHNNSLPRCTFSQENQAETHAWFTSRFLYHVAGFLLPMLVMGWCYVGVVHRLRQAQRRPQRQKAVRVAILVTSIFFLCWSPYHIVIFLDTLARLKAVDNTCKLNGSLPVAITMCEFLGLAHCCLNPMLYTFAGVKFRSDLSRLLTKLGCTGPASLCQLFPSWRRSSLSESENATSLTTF
Chain of Apelin receptor (P35414 whole entry, the tested form may be a part): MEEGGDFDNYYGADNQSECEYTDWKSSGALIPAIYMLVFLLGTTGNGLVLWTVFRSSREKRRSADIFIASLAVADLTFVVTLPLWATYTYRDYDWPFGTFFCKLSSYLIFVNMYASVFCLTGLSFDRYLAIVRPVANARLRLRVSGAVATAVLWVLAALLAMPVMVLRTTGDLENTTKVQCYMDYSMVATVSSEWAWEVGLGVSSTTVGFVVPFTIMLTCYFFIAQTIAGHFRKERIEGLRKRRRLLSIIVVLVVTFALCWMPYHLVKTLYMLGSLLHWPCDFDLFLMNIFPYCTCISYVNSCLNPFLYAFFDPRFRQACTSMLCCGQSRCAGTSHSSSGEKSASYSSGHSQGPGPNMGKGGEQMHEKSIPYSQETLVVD

## O=C(OCCN1CCCCC1)c1c[nH]c2ccccc12
[1]
  AC50: 20 µM (inconclusive)

## CN1C(=O)C(=C2CC(c3ccc(Cl)cc3)NN2)C(=O)N(C)C1=O (stereo not drawn)
[2]
  IC50: 14.9 µM (active)
Beta-galactosidase
  IC50: > 66.6 µM (inactive)
[3]
  EC50: > 260 µM (inactive)
Apelin receptor
  IC50: 7.22 µM (active)
[4]
  IC50: 9.24 µM (inactive)
[5]
  IC50: 5.84 µM (active)

## Cc1cc(NCCCn2ccnc2)n2ncc(-c3ccc(Cl)cc3)c2n1
[6]
  EC50: 21.8 µM (inconclusive)
[7]
  EC50: 2.18 µM (active)
[8]
  EC50: 9.97 µM (inconclusive)
[9]
  EC50: 3.66 µM (active)
HT-1080
  EC50: 35 µM (active)
[10]
  CC50: 22 µM (active)
[11]
  CC50: > 20 µM (active)
[12]
  CC50: 7.48 µM (active)
Cells [13]
  IC50: 11.1 µM (active)
[14]
  AC50: 5.5 µM (active)
[15]
  AC50: 2.85 µM (active)
[16]
  EC50: > 67.6 µM (inactive)
Cells [17]
  EC50: > 67.6 µM (inactive)

## CCCn1nc(NC(=O)c2cccs2)c2cc3cc(OC)ccc3nc21
[18]
  AC50: 9.59 µM (active)
[19]
  AC50: 0.445 µM (active)

## CCC1(C)OC(c2ccccc2)=C/C(=C/C=C2C(=O)NC(=O)NC2=O)O1 (stereo not drawn)
[20]
  IC50: > 100 µM (inactive)
[21]
  IC50: > 100 µM (not active)
Troponin, cardiac muscle
  EC50: 2.38 µM (active)
CHO
  IC50: > 49.7 µM (inactive)

## C[C@@H]1CN([C@@H](C)CO)C(=O)c2cccc(NC(=O)Nc3cccc4ccccc34)c2O[C@H]1CN(C)S(=O)(=O)c1ccccc1F
[22]
  AC50: 32.7 µM (active)
INS1
  AC50: 48.6 µM (active)

## COCCC(=O)N1CCN(c2ccccn2)CC1
Candida albicans
  AC50: 5.95 µM (active)

## COc1ccccc1/N=c1\oc2cc(O)ccc2cc1C(N)=O
Streptokinase A
  EC50: > 150 µM (not active)
[23]
  EC50: 1.15 µM (active)
[24]
  EC50: 3.1 µM (active)
Streptococcus
  EC50: 42 µM (active)
[25]
  AC50: 17.3 µM (active)
HSP90
  AC50: 27.5 µM (active)
[15]
  AC50: 0.139 µM (active)

## Oc1nc(N/N=C\c2ccc(F)cc2)nc2ccccc12
[26]
  EC50: 7.12 µM (active)
[27]
  EC50: > 99 µM (inactive)
